Biological target: T1, HDAC6 (Homo sapiens, UniProt Q9UBN7)
T1 sequence (Q9UBN7 1-1215): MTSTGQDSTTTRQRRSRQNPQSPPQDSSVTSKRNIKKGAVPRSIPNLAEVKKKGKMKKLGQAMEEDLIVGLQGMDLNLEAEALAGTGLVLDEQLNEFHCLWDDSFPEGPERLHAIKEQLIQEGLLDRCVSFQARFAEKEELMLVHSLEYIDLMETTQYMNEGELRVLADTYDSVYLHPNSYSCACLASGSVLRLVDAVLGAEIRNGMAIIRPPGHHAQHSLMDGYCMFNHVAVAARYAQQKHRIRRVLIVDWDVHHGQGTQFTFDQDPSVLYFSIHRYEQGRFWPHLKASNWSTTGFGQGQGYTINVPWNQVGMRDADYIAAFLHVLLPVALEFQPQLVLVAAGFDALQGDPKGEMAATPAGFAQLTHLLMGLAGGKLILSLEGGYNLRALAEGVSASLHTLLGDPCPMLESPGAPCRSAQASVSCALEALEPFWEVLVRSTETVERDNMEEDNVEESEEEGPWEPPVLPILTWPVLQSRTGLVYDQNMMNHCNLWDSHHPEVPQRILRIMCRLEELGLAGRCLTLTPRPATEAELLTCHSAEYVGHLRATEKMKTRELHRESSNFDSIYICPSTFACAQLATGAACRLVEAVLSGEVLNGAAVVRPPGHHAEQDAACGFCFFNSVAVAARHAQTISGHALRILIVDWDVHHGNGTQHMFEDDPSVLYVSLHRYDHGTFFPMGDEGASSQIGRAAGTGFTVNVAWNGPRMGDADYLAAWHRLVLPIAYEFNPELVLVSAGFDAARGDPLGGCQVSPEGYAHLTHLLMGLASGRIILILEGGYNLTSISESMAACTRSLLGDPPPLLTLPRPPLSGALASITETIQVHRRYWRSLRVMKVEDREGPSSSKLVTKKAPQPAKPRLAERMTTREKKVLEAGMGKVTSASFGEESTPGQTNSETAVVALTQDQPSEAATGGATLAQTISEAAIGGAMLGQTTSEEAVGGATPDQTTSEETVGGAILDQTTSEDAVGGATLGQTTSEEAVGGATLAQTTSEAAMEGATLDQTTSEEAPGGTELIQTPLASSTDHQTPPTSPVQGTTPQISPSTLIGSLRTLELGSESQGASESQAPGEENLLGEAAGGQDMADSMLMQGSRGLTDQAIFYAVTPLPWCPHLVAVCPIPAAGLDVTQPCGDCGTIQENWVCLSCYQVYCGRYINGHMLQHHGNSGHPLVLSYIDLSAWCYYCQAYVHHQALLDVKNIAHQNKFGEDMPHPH
Test: Inhibition of purified HDAC6, Boc-Lys(Ac)-AMC substrate
Format: biochemical
Set-up: purchased Cayman Chemical
Details: 1 h 37 °C

IC50: 3.09 µM
Structure (SMILES): CCC(CC)(c1ccc(OCCCCCC(=O)NO)cc1)c1ccc(OCC(O)C(C)(C)C)c(C)n1 (stereo not shown) [AM-193]

— PMC12517324, “Hyperagonism of a Vitamin D Receptor Agonist/Histone Deacetylase Inhibitor Hybrid Molecule” (Journal of Medicinal Chemistry, 2025)
